Source: US9346815B2, “5-chloro-2-difluoromethoxyphenyl pyrazolopyrimidine compounds, compositions and methods of use thereof” (Genentech, Inc., priority 2014, dated 2016)

How the values were obtained:
[1] = target: isolated recombinant JAK1 kinase domain (Homo sapiens (Human), UniProt P23458); assay: JAK1 enzyme assay (Caliper LabChip, peptide phosphorylation); format: biochemical; details: isolated recombinant JAK1 kinase domain, 25 μM ATP
[2] = target: isolated recombinant JAK2 kinase domain (Homo sapiens (Human), UniProt O60674); assay: JAK2 enzyme assay (Caliper LabChip, peptide phosphorylation); format: biochemical; details: 25 μM ATP
[3] = tested on: JAK1-dependent STAT6 phosphorylation downstream of IL-13 stimulation in TF-1 human erythroleukemia cells; assay: JAK1 pathway assay in TF-1 cells (IL-13-pSTAT6, MSD); format: cell-based; details: Homo sapiens, TF-1, TF-1 cells, read-out: IL13-pSTAT6 EC50_TF-1
In short: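 TF-1 cells starved of GM-CSF overnight, assayed serum-free; BEAS-2B cells in complete growth medium. Lysate pSTAT6 measured by MSD; EC50 derived.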

Sequence of isolated recombinant JAK1 kinase domain (P23458 875-1153): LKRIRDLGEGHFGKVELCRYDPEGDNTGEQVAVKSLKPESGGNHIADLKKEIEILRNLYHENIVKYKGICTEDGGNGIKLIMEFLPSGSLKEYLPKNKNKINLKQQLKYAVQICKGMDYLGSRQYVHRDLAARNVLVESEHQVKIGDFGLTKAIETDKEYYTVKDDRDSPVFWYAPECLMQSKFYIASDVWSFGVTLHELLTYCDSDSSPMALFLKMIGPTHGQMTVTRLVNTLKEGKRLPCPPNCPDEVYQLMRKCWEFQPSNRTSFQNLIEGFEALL
Sequence of isolated recombinant JAK2 kinase domain (O60674 849-1124): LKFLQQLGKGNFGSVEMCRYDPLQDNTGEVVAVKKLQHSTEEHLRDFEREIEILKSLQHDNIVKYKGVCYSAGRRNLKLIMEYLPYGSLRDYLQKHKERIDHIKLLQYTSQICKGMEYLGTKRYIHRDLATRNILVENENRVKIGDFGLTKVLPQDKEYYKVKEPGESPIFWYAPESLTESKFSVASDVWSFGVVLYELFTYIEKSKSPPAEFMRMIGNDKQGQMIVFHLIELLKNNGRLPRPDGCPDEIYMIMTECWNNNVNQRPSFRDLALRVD

Row | Ki [1] [nM] | Ki [2] [nM] | EC50 [3] [nM] | SMILES
1 | 1.1 | 1.82 | 15.8 | CN(CC(F)(F)F)C1CCN(C(=O)C2CCN(c3nc(-c4cc(Cl)ccc4OC(F)F)c(NC(=O)c4cnn5cccnc45)s3)CC2)CC1 [Example 202, N-[4-[5-chloro-2-(difluoromethoxy)phenyl]-2-[4-[4-[methyl(2,2,2-trifluoroethyl)amino]piperidine-1-carbonyl]-1-piperidyl]thiazol-5-yl]pyrazolo[1,5-a]pyrimidine-3-carboxamide]
2 | 0.97 | 2.42 | 38.5 | CN(C)CC1(O)CCN(C(=O)Cn2cc(NC(=O)c3cnn4cccnc34)c(-c3cc(Cl)ccc3OC(F)F)n2)CC1 [Example 74, N-[3-[5-chloro-2-(difluoromethoxy)phenyl]-1-[2-[4-[(dimethylamino)methyl]-4-hydroxy-1-piperidyl]-2-oxo-ethyl]pyrazol-4-yl]pyrazolo[1,5-a]pyrimidine-3-carboxamide]
3 | 0.43 | 0.87 | 4.9 | CN(C)CC1(c2ccccc2)CCN(C(=O)Cn2cc(NC(=O)c3cnn4cccnc34)c(-c3cc(Cl)ccc3OC(F)F)n2)CC1 [Example 80, N-[3-[5-chloro-2-(difluoromethoxy)phenyl]-1-[2-[4-[(dimethylamino)methyl]-4-phenyl-1-piperidyl]-2-oxo-ethyl]pyrazol-4-yl]pyrazolo[1,5-a]pyrimidine-3-carboxamide]
4 | 7.74 | 2.65 | 68.5 | CN(C)C1CCN(Cc2nc(-c3cc(Cl)ccc3OC(F)F)c(NC(=O)c3cnn4cccnc34)s2)CC1 [Example 260, Pyrazolo[1,5-a]pyrimidine-3-carboxylic acid [4-(5-chloro-2-difluoromethoxy-phenyl)-2-(4-dimethylamino-piperidin-1-ylmethyl)-thiazol-5-yl]-amide]
5 | 0.57 | 0.16 | 14.8 | Nc1nn2cccnc2c1C(=O)Nc1cn(C2CCN(CCCNC(=O)c3ccccc3)CC2)nc1-c1cc(Cl)ccc1OC(F)F [Example 145, 2-amino-N-[1-[1-(3-benzamidopropyl)-4-piperidyl]-3-[5-chloro-2-(difluoromethoxy)phenyl]pyrazol-4-yl]pyrazolo[1,5-a]pyrimidine-3-carboxamide]
6 | 1.74 | 1.05 | 17.4 | O=C(Nc1sc(N2CCC(N3CC(F)(F)C3)CC2)nc1-c1cc(Cl)ccc1OC(F)F)c1cnn2cccnc12 [Example 196, N-[4-[5-chloro-2-(difluoromethoxy)phenyl]-2-[4-(3,3-difluoroazetidin-1-yl)-1-piperidyl]thiazol-5-yl]pyrazolo[1,5-a]pyrimidine-3-carboxamide]
7 | 1.9 | 3.28 | 78.4 | CN(CC(F)(F)F)C1CCN(C(=O)c2ccc(-n3cc(NC(=O)c4cnn5cccnc45)c(-c4cc(Cl)ccc4OC(F)F)n3)cc2)CC1 [Example 303, N-[3-[5-chloro-2-(difluoromethoxy)phenyl]-1-[4-[4-[methyl(2,2,2-trifluoroethyl)amino]piperidine-1-carbonyl]phenyl]pyrazol-4-yl]pyrazolo[1,5-a]pyrimidine-3-carboxamide]
8 | 3.76 | 7.04 | 23.3 | O=C(Nc1cn(CC(=O)N2CCC(N(Cc3ccccc3)CC(F)(F)F)CC2)nc1-c1cc(Cl)ccc1OC(F)F)c1cnn2cccnc12 [Example 116, N-[1-[2-[4-[benzyl(2,2,2-trifluoroethyl)amino]-1-piperidyl]-2-oxo-ethyl]-3-[5-chloro-2-(difluoromethoxy)phenyl]pyrazol-4-yl]pyrazolo[1,5-a]pyrimidine-3-carboxamide]
9 | 0.88 | 0.15 | 15.9 | CN1CCCC(n2cc(NC(=O)c3c(N)nn4cccnc34)c(-c3cc(Cl)ccc3OC(F)F)n2)CC1 (stereo not drawn) [Example 172, 2-amino-N-[3-[5-chloro-2-(difluoromethoxy)phenyl]-1-(1-methylazepan-4-yl)pyrazol-4-yl]pyrazolo[1,5-a]pyrimidine-3-carboxamide]
